pIC50: −log10 of the molar value.
Assays:
[1] = target: His-tagged human recombinant kinase full-length Akt1 (Homo sapiens (Human), UniProt P31749); assay: Akt1 kinase assay (Akt1 TR-FRET assay, Biological Assay 1.0); assay type: biochemical; conditions: 10 μM ATP, 1 μM biotinylated peptide substrate, 60 min at 22° C.
Outline: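 Insect-cell-expressed full-length His-Akt1 (~0.05 ng/μl) preincubated 15 min with compound, then reacted 60 min at 22 °C with 10 μM ATP and 1 μM biotinylated peptide (final), pH 7.5. Phosphopeptide detected by HTRF (665/620 nm ratio). Data normalised to no-inhibitor and no-enzyme controls.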

[2] = target: His-tagged human recombinant kinase full-length Akt2 activated by PDK1 (Homo sapiens (Human), UniProt P31751); assay: Akt2 kinase assay (Akt2 TR-FRET assay, Biological Assay 2.0); assay type: biochemical; conditions: 10 μM ATP, 1 μM biotinylated peptide substrate, 60 min at 22° C.
Chain of His-tagged human recombinant kinase full-length Akt2 activated by PDK1 (P31751 whole entry): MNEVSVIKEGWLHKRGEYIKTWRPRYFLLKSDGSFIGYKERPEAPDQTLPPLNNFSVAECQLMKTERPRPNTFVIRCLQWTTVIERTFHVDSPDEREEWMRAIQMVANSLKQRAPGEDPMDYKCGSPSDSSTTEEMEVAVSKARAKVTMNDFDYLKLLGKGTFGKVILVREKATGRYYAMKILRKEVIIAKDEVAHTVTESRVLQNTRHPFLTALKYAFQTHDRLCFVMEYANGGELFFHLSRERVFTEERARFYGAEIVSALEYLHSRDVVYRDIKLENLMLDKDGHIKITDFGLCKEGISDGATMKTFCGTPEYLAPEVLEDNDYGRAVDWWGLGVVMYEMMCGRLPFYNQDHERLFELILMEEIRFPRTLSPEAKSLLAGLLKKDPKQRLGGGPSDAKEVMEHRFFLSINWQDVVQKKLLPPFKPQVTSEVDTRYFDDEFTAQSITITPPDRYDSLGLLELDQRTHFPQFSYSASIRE
Outline: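 Compound was pre-incubated with enzyme (~0.2 ng/µl final) for 15 min at 22 °C in Tris pH 7.5, 5 mM MgCl2, then reacted 60 min with 10 µM ATP and 1 µM biotinylated peptide. Phosphopeptide was detected by TR-FRET (665/622 nm ratio). Data were normalised to no-inhibitor (0%) and no-enzyme (100%) controls.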

Chain of His-tagged human recombinant kinase full-length Akt1 (P31749 whole entry): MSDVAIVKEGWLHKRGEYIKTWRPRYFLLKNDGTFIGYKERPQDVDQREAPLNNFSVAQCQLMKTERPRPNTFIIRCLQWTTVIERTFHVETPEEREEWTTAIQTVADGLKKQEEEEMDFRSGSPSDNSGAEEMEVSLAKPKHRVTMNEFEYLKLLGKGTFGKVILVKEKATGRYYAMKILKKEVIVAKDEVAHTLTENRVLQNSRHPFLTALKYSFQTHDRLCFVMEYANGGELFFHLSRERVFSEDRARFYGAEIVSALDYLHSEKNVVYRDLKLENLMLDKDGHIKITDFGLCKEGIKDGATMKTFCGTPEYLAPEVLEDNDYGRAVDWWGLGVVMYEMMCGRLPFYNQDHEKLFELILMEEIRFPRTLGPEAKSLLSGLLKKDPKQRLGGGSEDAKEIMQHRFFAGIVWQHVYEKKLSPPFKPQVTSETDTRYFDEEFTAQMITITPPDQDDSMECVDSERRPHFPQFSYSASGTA

Row | SMILES | pIC50 [1] | pIC50 [2]
1 | COC(=O)c1cnn2cc(-c3c(F)cccc3F)c(-c3ccc(CN4CC(c5n[nH]c(-c6ccccn6)n5)C4)cc3)nc12 [Example 28.0, 6-(2,6-difluorophenyl)-5-(4-{3-[5-(pyridine-2-yl)-1H-[1,2,4]triazole-3-yl]-azetidine-1-ylmethyl}-phenyl)-pyrazolo[1,5-a]pyrimidine-3-carboxylic acid methyl ester] | 7.85 | 6.12
2 | COC(=O)c1cnn2cc(-c3ccc(F)cc3F)c(-c3ccc(CN4CC(c5n[nH]c(-c6ccccn6)n5)C4)cc3)nc12 [Example 32.0, 6-(2,4-difluorophenyl)-5-(4-{3-[5-(pyridine-2-yl)-1H-[1,2,4]triazole-3-yl]-azetidine-1-ylmethyl}-phenyl)-pyrazolo[1,5-a]pyrimidine-3-carboxylic acid methyl ester] | 8.15 | 6.67
3 | Fc1ccc(-c2cn3ccnc3nc2-c2ccc(CN3CCC(c4cnc5ccccc5n4)CC3)cc2)cc1 [Example 34.0, 2-(1-{4-[6-(4-fluorophenyl)-imidazo[1,2-a]pyrimidin-7-yl]-benzyl}-piperidine-4-yl)-quinoxaline] | 6.44 | 5.64
4 | Cc1nc2nc(-c3ccc(CN4CCC(n5ncc6c(N)ncnc65)CC4)cc3)c(-c3ccccc3)cn2n1 [Example 22.0, 1-{1-[4-(2-methyl-6-phenyl-[1,2,4]-triazolo[1,5-a]pyrimidin-5-yl)benzyl]-piperidin-4-yl}-1H-pyrazolo[3,4-d]pyrimidin-4-ylamine] | 6.54 | 6.38
5 | Cc1cccc(-c2nc(C3CN(Cc4ccc(-c5nc6nc(C)cn6cc5-c5ccccc5)cc4)C3)n[nH]2)n1 [Example 38.0, 2-methyl-7-(4-{3-[5-(6-methylpyridine-2-yl)-1H-[1,2,4]triazole-3-yl]-azetidine-1-ylmethyl}-phenyl)-6-phenyl-imidazo[1,2-a]pyrimidine] | 7.89 | 7.80
6 | N#Cc1ccc2nc(C3CCN(Cc4ccc(-c5nc6nccn6cc5-c5ccccc5)cc4)CC3)[nH]c2c1 [Example 9.0, 2-{1-[4-(6-Phenyl-imidazo[1,2-a]pyrimidin-7-yl)-benzyl]-piperidin-4-yl}-3H-benzimidazole-5-carbonitrile] | 7.08 | 6.37
7 | c1ccc(-c2cn3ccnc3nc2-c2ccc(CN3CCC(c4nc5cccnc5[nH]4)CC3)cc2)cc1 [Example 7.0, 2-{1-[4-(6-phenyl-imidazo[1,2-a]pyrimidin-7-yl)-benzyl]-piperidin-4-yl}-3H-imidazo[4,5-b]pyridine] | 7.25 | 6.22
8 | c1ccc(-c2cn3ccnc3nc2-c2ccc(CN3CCC(c4cnc5ccccc5n4)CC3)cc2)cc1 [Example 10.0, 2-{1-[4-(6-phenyl-imidazo[1,2-a]pyrimidin-7-yl)-benzyl]-piperidine-4-yl}-quinoxaline] | 8.40 | 8.05
9 | Cc1nc2nc(-c3ccc(CN4CCC(c5nc6ccc(C#N)cc6[nH]5)CC4)cc3)c(-c3ccccc3)cn2n1 [Example 20.0, 2-{1-[4-(2-methyl-6-phenyl-[1,2,4]triazolo[1,5-a]pyrimidin-5-yl)benzyl]-piperidin-4-yl}-3H-benzimidazole-5-carbonitrile] | 6.28 | 6.00
10 | c1ccc(-c2cn3ccnc3nc2-c2ccc(CN3CCC(c4nc5ccncc5[nH]4)CC3)cc2)cc1 [Example 6.0, 2-{1-[4-(6-phenyl-imidazo[1,2-a]pyrimidin-7-yl)-benzyl]-piperidin-4-yl}-3H-imidazo[4,5-c]pyridine] | 6.80 | 5.91
11 | CC(C)c1nc2nc(-c3ccc(CN4CCC(c5cnc6ccccc6n5)CC4)cc3)c(-c3ccccc3)cn2n1 [Example 30.0, 2-{1-[4-(2-isopropyl-6-phenyl-[1,2,4]triazolo[1,5-a]pyrimidin-5-yl)benzyl]-piperidine-4-yl}-quinoxaline] | 5.17 | 6.29
12 | CC(C)c1nc2nc(-c3ccc(CN4CC(c5n[nH]c(-c6ccccn6)n5)C4)cc3)c(-c3ccccc3)cn2n1 [Example 29.0] | 7.08 | 7.46
13 | FC(F)(F)c1ccc2nc(C3CCN(Cc4ccc(-c5nc6ccnn6cc5-c5ccccc5)cc4)CC3)[nH]c2c1 [Example 17.0, 6-phenyl-5-{4-[4-(6-trifluoromethyl-1H-benzimidazol-2-yl)piperidin-1-ylmethyl]-phenyl}-pyrazolo[1,5-a]pyrimidine] | 6.47 | < 4.70

The next lines start with the values.

Row | pIC50 [1] | pIC50 [2] | SMILES
14 | 7.39 | 7.34 | Cc1cccc(-c2nc(C3CCN(Cc4ccc(-c5nc6nc(C7CC7)nn6cc5-c5ccc(F)cc5)cc4)CC3)n[nH]2)n1 [Example 51.0, 2-cyclopropyl-6-(4-fluorophenyl)-5-(4-{4-[5-(6-methylpyridine-2-yl)-1H-[1,2,4]triazole-3-yl]-piperidine-1-ylmethyl}-phenyl)-[1,2,4]triazolo[1,5-a]pyrimidine]
15 | 7.62 | 7.06 | CC(C)Nc1c(-c2ccccc2)c(-c2ccc(CN3CC(c4n[nH]c(-c5ccccn5)n4)C3)cc2)nc2nc(-c3ccccn3)nn12 [Example 68.0]
16 | 7.74 | 6.97 | COc1nn2cc(-c3c(F)cccc3F)c(-c3ccc(CN4CCC(c5n[nH]c(-c6cccc(C)n6)n5)CC4)cc3)nc2c1CO [Example 63.2]
17 | 8.00 | 8.00 | Cc1cccc(-c2nc(C3CN(Cc4ccc(-c5nc6nc(C7CC7)nn6cc5-c5ccccc5)cc4)C3)n[nH]2)n1 [Example 41.0, 2-cyclopropyl-5-(4-{3-[5-(6-methylpyridine-2-yl)-1H-[1,2,4]triazole-3-yl]-azetidine-1-ylmethyl}-phenyl)-6-phenyl-[1,2,4]triazolo[1,5-a]pyrimidine]
18 | 8.00 | 7.33 | Cc1cn2cc(-c3ccccc3)c(-c3ccc(CN4CC(c5n[nH]c(-c6ccccn6)n5)C4)cc3)nc2n1 [Example 56.0, 2-methyl-6-phenyl-7-{4-{3-[5-(pyridine-2-yl)-1H-[1,2,4]triazole-3-yl)-azetidine-1-ylmethyl]-phenyl}-imidazo[1,2-a]pyrimidine]
19 | 6.73 | 5.84 | Fc1ccc(-c2cn3ccnc3nc2-c2ccc(CN3CCC(c4n[nH]c(-c5cnccn5)n4)CC3)cc2)cc1 [Example 52.2, 6-(4-fluorophenyl)-7-{4-[4-(5-pyrazine-2-yl-1H-[1,2,4]triazole-3-yl]-piperidine-1-ylmethyl]-phenyl}-imidazo[1,2-a]pyrimidine]
20 | 7.38 | 6.89 | CNc1c(-c2ccccc2)c(-c2ccc(CN3CC(c4n[nH]c(-c5ccccn5)n4)C3)cc2)nc2ncc(Br)n12 [Example 59.0, (3-bromo-6-phenyl-7-{4-{3-[5-(pyridine-2-yl)-1H-[1,2,4]triazole-3-yl)-azetidine-1-ylmethyl]-phenyl}-imidazo[1,2-a]pyrimidin-5-yl)-methylamine]
21 | 8.05 | 7.77 | Cc1cccc(-c2nc(C3CCN(Cc4ccc(-c5nc6nccn6cc5-c5ccc(F)cc5)cc4)CC3)n[nH]2)n1 [Example 52.0, 6-(4-fluorophenyl)-7-(4-{4-[5-(6-methylpyridine-2-yl)-1H-[1,2,4]triazole-3-yl]-piperidine-1-ylmethyl}-phenyl)-imidazo[1,2-a]pyrimidine formiate]
22 | 8.15 | 7.09 | COC(=O)c1cnn2cc(-c3c(F)cccc3F)c(-c3ccc(CN4CCC(c5n[nH]c(-c6cccc(C)n6)n5)CC4)cc3)nc12 [Example 48.0, 6-(2,6-difluorophenyl)-5-(4-{4-[5-(6-methylpyridine-2-yl)-1H-[1,2,4]triazole-3-yl]-piperidine-1-ylmethyl}-phenyl)-pyrazolo[1,5-a]pyrimidine-3-carboxylic acid methyl ester]
23 | 7.26 | 6.10 | OCc1cnn2cc(-c3c(F)cccc3F)c(-c3ccc(CN4CC(c5n[nH]c(-c6ccccn6)n5)C4)cc3)nc12 [Example 62.0, (6-(2,6-difluorophenyl)-5-{4-[3-[5-pyridine-2-yl-1H-[1,2,4]triazole-3-yl)-azetidine-1-ylmethyl]-phenyl}-pyrazolo[1,5-a]pyrimidin-3-yl)-methanol]
24 | 7.92 | 7.85 | COC(=O)c1cn2cc(-c3ccccc3)c(-c3ccc(CN4CC(c5n[nH]c(-c6cccc(C)n6)n5)C4)cc3)nc2n1 [Example 74.0, 7-(4-{3-[5-(6-methylpyridine-2-yl)-1H-[1,2,4]triazole-3-yl]-azetidine-1-ylmethyl}-phenyl)-6-phenyl-imidazo[1,2-a]pyrimidine-2-carboxylic acid methyl ester]
25 | 7.52 | 6.32 | CNc1c(-c2ccccc2)c(-c2ccc(CN3CC(c4n[nH]c(-c5ccccn5)n4)C3)cc2)nc2nccn12 [Example 58.0, methyl-(6-phenyl-7-{4-{3-[5-(pyridine-2-yl)-1H-[1,2,4]triazole-3-yl)-azetidine-1-ylmethyl]-phenyl}-imidazo[1,2-a]pyrimidin-5-yl)-amine]
26 | 7.55 | 6.89 | Cc1nc2nc(-c3ccc(CN4CCC(c5n[nH]c(-c6ccccn6)n5)CC4)cc3)c(-c3cccc(F)c3)cn2n1 [Example 49.1, 6-(3-fluorophenyl)-2-methyl-5-{4-[4-(5-pyridine-2-yl)-1H-[1,2,4]triazole-3-yl)-piperidine-1-ylmethyl]-phenyl]-[1,2,4]triazolo[1,5-a]pyrimidine formiate]
27 | 7.66 | 7.96 | CC(C)Nc1nc2nc(-c3ccc(CN4CC(c5n[nH]c(-c6ccccn6)n5)C4)cc3)c(-c3ccccc3)cn2n1 [Example 43.1, isopropyl-(6-phenyl-5-{4-[3-(5-pyridin-2-yl-1H-[1,2,4]triazol-3-yl)-azetidin-1-ylmethyl]-phenyl}-[1,2,4]triazolo[1,5-a]pyrimidin-2-yl)-amine]
